Several values for one entry are separate records, joined by “and”; a condition that tells them apart may be missing. Identical values can stand only once. Entries after “also recorded” stand apart in the source; their conditions may differ.
System: Wistar rats
Assay: Sleep promoting properties in Wistar rats, video monitoring of home cage activity (total sleep time, latency to sleep, number of sleep episodes)
Assay type: in vivo
Settings: for Total Sleep time: 180 min recording
Method: Sublingual dexmedetomidine formulation of present invention was tested in rats for its ability to increase the amount of sleep or decrease sleep interruption or both without undesired effects. Test animals' activity was continuously monitored by using a video camera overhead and data analysed for latency of sleep, total sleep time and number of sleep episodes by using the NoldusEthovision-XT 11.
Male Wistar rats were approximately of the weight 180 g-220 g and age of about 5-7 weeks old. Animals were numbered and kept in acclimatization for a period of 5-7 days before the initiation of the experiment. All the experiments on animals were conducted in accordance with the guidelines of the Committee for the Purpose of Control and Supervision of Experiments on Animals (CPCSEA), Goveemment of India the Association for Assessment and Accreditation of Laboratory Animal Care intemational (AAALAC).
Recording Environment: Animals were housed group wise (three animals per cage) within a microisolator cage modified with an inserted polycarbonate filter-top riser to allow more vertical headroom. Animals were maintained on the normal rodent chow ad libitum and given free access to fresh autoclaved potable drinking water. Animals were kept in a controlled environmental condition with 22±3° C. temperature, 50±20% humidity, a light dark cycle of 12 hours each and 15-20 fresh air changes per hour.
Animal Groups: Wistar rats were randomly divided into different groups, each containing 6 animals. The study groups were divided as normal control group, vehicle control group, test compound groups and reference compound group.
Animals were weight once at randomization and each day thereafter. The animals were studied from day 1 till day 9. […] On day 3, animals were dosed with test compounds and respiratory parameters such as tidal volume, frequency of respiration: heart rate and blood pressure were recorded. On day 5 and day 6, animals were trained on the rotarod apparatus (4-40 rpm for 300 s). On day 7, animals were administered with test compounds and motor coordination was tested on rotarod at 3, 10, 17, 24 and 30 minutes post administration to establish a temporal scale of loss of motor activity and drowsiness. On day 9, animals were dosed with test compounds and blood was collected at 15, 30, 60 and 120 min post sublingual dosing to estimate plasma drug concentration of dexmedetomidine. All the animals were euthanized by CO2 inhalation on day 9. The animal in the satellite groups was dosed with test compounds and blood was collected on day 0 at 15, 30, 60, and 120 min post sublingual dosing to estimate plasma drug concentration of dexmedetomidine after first drug exposure.
The normal control group received no treatment: vehicle control group received 0.9% saline water; the test group received compound (dexmedetomidine), administered sublingually in different doses (dose 1-5.14 μg/kg of body weight, dose 2-10 μg/kg of body weight, dose 3-20 μg/kg of body weight, dose 4-30 μg/kg of body weight and dose 5-40 μg/kg of body weight) and also administered parenterally (dose 6-1.5 μg kg of body weight); and the reference compound (Zolpidem) was administered orally in dose of 30 mg/kg of body weight. The treatment was given such that no rat received the same treatment twice.
Total sleep time, latency to sleep and number of sleep episodes were measured: After administration of each dose to each group of animal, the latency to sleep, total sleep time and sleep episodes was recorded.
One way ANOVA test was applied for the comparison of the data from different groups for total sleep time, latency to sleep and number of sleep episodes.

[1] = Table 2, Dose 1 (5.14 μg/kg, SL)
[2] = Table 2, Dose 6 (1.5 μg/kg, I.V.)
[3] = group mean, Dose 1 (5.14 μg/kg Dexmedetomidine SL)
[4] = group mean, Dose 2 (10 μg/kg Dexmedetomidine SL)
[5] = group mean, Dose 3 (20 μg/kg Dexmedetomidine SL)
[6] = group mean, Dose 4 (30 μg/kg Dexmedetomidine SL)
[7] = group mean, Dose 5 (40 μg/kg Dexmedetomidine SL)
[8] = group mean, Dose 6 (1.5 μg/kg Dexmedetomidine I.V.)
[9] = individual animals, Dose 1 (5.14 μg/kg Dexmedetomidine SL)
[10] = individual animals, Dose 2 (10 μg/kg Dexmedetomidine SL)
[11] = individual animals, Dose 3 (20 μg/kg Dexmedetomidine SL)
[12] = individual animals, Dose 4 (30 μg/kg Dexmedetomidine SL)
[13] = individual animals, Dose 5 (40 μg/kg Dexmedetomidine SL)
[14] = individual animals, Dose 6 (1.5 μg/kg Dexmedetomidine I.V.)
[15] = parenteral dexmedetomidine (1.5 μg/kg, p.o.), compared to vehicle control
[16] = Table 2, Zolpidem (30 mg/kg, p.o.)
[17] = group mean, Zolpidem (30 mg/kg), orally
[18] = individual animals, Zolpidem (30 mg/kg), orally

Compound: Cc1cccc([C@H](C)c2cnc[nH]2)c1C [Dexmedetomidine, 5-[(1 S)-1-(2,3-dimethylphenyl)ethyl]-1 H-imidazole]
- Latency to Sleep (Mean and SEM) [1]: 63.2
- Number of Sleep Episodes (Mean and SEM) [1]: 2.33
- Total Sleep Time (Mean and SEM) [1]: 100.7
- Latency to Sleep (Mean and SEM) (Table 2, Dose 2 (10 μg/kg, SL)): 21.0
- Number of Sleep Episodes (Mean and SEM) (Table 2, Dose 2 (10 μg/kg, SL)): 4.50
- Total Sleep Time (Mean and SEM) (Table 2, Dose 2 (10 μg/kg, SL)): 130.1
- Latency to Sleep (Mean and SEM) (Table 2, Dose 3 (20 μg/kg, SL)): 12.7
- Number of Sleep Episodes (Mean and SEM) (Table 2, Dose 3 (20 μg/kg, SL)): 4.00
- Total Sleep Time (Mean and SEM) (Table 2, Dose 3 (20 μg/kg, SL)): 150.2
- Latency to Sleep (Mean and SEM) (Table 2, Dose 4 (30 μg/kg, SL)): 13.2
- Number of Sleep Episodes (Mean and SEM) (Table 2, Dose 4 (30 μg/kg, SL)): 2.50
- Total Sleep Time (Mean and SEM) (Table 2, Dose 4 (30 μg/kg, SL)): 143.1
- Latency to Sleep (Mean and SEM) (Table 2, Dose 5 (40 μg/kg, SL)): 16.7
- Number of Sleep Episodes (Mean and SEM) (Table 2, Dose 5 (40 μg/kg, SL)): 2.67
- Total Sleep Time (Mean and SEM) (Table 2, Dose 5 (40 μg/kg, SL)): 169.7
- Latency to Sleep (Mean and SEM) [2]: 25.4
- Number of Sleep Episodes (Mean and SEM) [2]: 2.33
- Total Sleep Time (Mean and SEM) [2]: 137
- Latency to Sleep (Time of sleep onset), result in words (dexmedetomidine dosed sublingually at 10, 20, 30 & 40 μg/kg, compared to vehicle control): significantly lowered; also recorded: significantly reduced
- Number of sleep episodes, result in words (dexmedetomidine dosed sublingually, from 10, 20, 30 & 40 μg/kg, compared to vehicle control): gradually decreased
- Latency to Sleep [3]: 63.17
- Number of Sleep Episodes [3]: 2.33
- Total Sleep time Normalized to Vehicle* [3]: 100.71
- Total Sleep time [3]: 47.67 min
- Latency to Sleep [4]: 21.00
- Number of Sleep Episodes [4]: 4.50
- Total Sleep time Normalized to Vehicle* [4]: 130.13
- Total Sleep time [4]: 103.67 min
- Latency to Sleep [5]: 12.67
- Number of Sleep Episodes [5]: 4.00
- Total Sleep time Normalized to Vehicle* [5]: 150.21
- Total Sleep time [5]: 119.67 min
- Latency to Sleep [6]: 13.17
- Number of Sleep Episodes [6]: 2.50
- Total Sleep time Normalized to Vehicle* [6]: 143.10
- Total Sleep time [6]: 114.00 min
- Latency to Sleep [7]: 16.67
- Number of Sleep Episodes [7]: 2.67
- Total Sleep time Normalized to Vehicle* [7]: 169.67
- Total Sleep time [7]: 135.17 min
- Latency to Sleep [8]: 25.40
- Number of Sleep Episodes [8]: 2.33
- Total Sleep time Normalized to Vehicle* [8]: 136.98
- Total Sleep time [8]: 64.83 min
- Latency to Sleep [9]: 97 and 101 and 87 and 94 and 0 (2×)
- Number of Sleep Episodes [9]: 2 (2×) and 5 (2×) and 0 (2×)
- Total Sleep time Normalized to Vehicle* [9]: 184 and 203 and 125 and 93 and 0 (2×)
- Total Sleep time [9]: 87 min and 96 min and 59 min and 44 min and 0 min (2×)
- Latency to Sleep [10]: 18 (2×) and 29 and 21 and 24 and 16
- Number of Sleep Episodes [10]: 5 (4×) and 4 and 3
- Total Sleep time Normalized to Vehicle* [10]: 128 and 102 and 108 and 141 and 152 and 151
- Total Sleep time [10]: 102 min and 81 min and 86 min and 112 min and 121 min and 120 min
- Latency to Sleep [11]: 15 (2×) and 12 and 13 and 10 and 11
- Number of Sleep Episodes [11]: 5 and 3 and 4 (4×)
- Total Sleep time Normalized to Vehicle* [11]: 133 and 174 and 143 and 142 and 181 and 128
- Total Sleep time [11]: 106 min and 139 min and 114 min and 113 min and 144 min and 102 min
- Latency to Sleep [12]: 11 (2×) and 23 and 8 and 10 and 16
- Number of Sleep Episodes [12]: 4 and 2 (4×) and 3
- Total Sleep time Normalized to Vehicle* [12]: 162 and 127 and 158 (2×) and 136 and 118
- Total Sleep time [12]: 129 min and 101 min and 126 min (2×) and 108 min and 94 min
- Latency to Sleep [13]: 16 (2×) and 17 and 18 and 13 and 20
- Number of Sleep Episodes [13]: 2 (3×) and 4 and 3 (2×)
- Total Sleep time Normalized to Vehicle* [13]: 181 and 134 and 186 and 190 and 159 and 168
- Total Sleep time [13]: 144 min and 107 min and 148 min and 151 min and 127 min and 134 min
- Latency to Sleep [14]: 18 and 27 and 26 and 24 and 85 and 32
- Number of Sleep Episodes [14]: 3 (3×) and 1 and 2 (2×)
- Total Sleep time Normalized to Vehicle* [14]: 180 and 184 and 95 and 129 and 177 and 57
- Total Sleep time [14]: 85 min and 87 min and 45 min and 61 min and 84 min and 27 min
- Latency to Sleep (Time of sleep onset), result in words [15]: significantly lowered
- Number of sleep episodes, result in words [15]: gradually decreased
- Total sleep time, result in words (sublingual dexmedetomidine at dose range of 10 to 40 μg/kg): no significant increase; also recorded: not significantly affecting
- Total Sleep Time (total duration of sleep in 180 min.), result in words (sublingual dexmedetomidine, 40 μg/kg): significant increase

Compound: Cc1ccc(-c2nc3ccc(C)cn3c2CC(=O)N(C)C)cc1 [Zolpidem]
- Latency to Sleep (Mean and SEM) [16]: 27.0
- Number of Sleep Episodes (Mean and SEM) [16]: 3.83
- Total sleep time normalized to vehicle [16]: 183.8
- Total Sleep Time (total duration of sleep in 180 min.), result in words (Zolpidem at the standard dose, compared to NC and Vehicle control): significant increase
- Latency to Sleep (Time of sleep onset), result in words (Zolpidem, compared to normal and vehicle control): reduction in the sleep latency
- Latency to Sleep [17]: 27.00
- Number of Sleep Episodes [17]: 3.83
- Total Sleep time Normalized to Vehicle* [17]: 183.82
- Total Sleep time [17]: 87.00 min
- Latency to Sleep [18]: 24 (2×) and 28 and 26 and 23 and 37
- Number of Sleep Episodes [18]: 3 (3×) and 6 and 4 (2×)
- Total Sleep time Normalized to Vehicle* [18]: 247 and 260 and 167 and 205 and 114 and 110
- Total Sleep time [18]: 117 min and 123 min and 79 min and 97 min and 54 min and 52 min

Source: patent US20250099430A1, “PREVENTION OR TREATMENT OF SLEEP DISORDERS USING DEXMEDETOMIDINE FORMULATION” (BioXcel Therapeutics, Inc., priority 2014, published 2025)
